Results from ChEMBL document CHEMBL1201862, “PubChem BioAssay data set” (2004).
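Results reflect a 48-hour exposure of cells in 96-well plates to compound at five concentrations. Abbreviation: GI50, concentration required for 50% inhibition of growth.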 The source made the active and inactive calls. Cut-off read from the data, not from the text of the source: active = GI50 up to about 1.1 µM and inactive = higher.

What was measured:
Test in all cases: inhibition of tumour cell growth, NCI panel, 48 h
SF-539 = test system: SF-539
CAKI-1 = test system: CAKI-1
K562 = test system: K562
A549 = test system: A549
HCC 2998 = test system: HCC 2998
Malme-3M = test system: Malme-3M
SK-OV-3 = test system: SK-OV-3
NCI-H522 = test system: NCI-H522
SNB-75 = test system: SNB-75
SK-MEL-28 = test system: SK-MEL-28
UACC-257 = test system: UACC-257
SK-MEL-2 = test system: SK-MEL-2
NCI-H226 = test system: NCI-H226
UO-31 = test system: UO-31
LXFL 529 = test system: LXFL 529
M14 = test system: M14
A498 = test system: A498
HCT-15 = test system: HCT-15
NCI-H460 = test system: NCI-H460
OVCAR-5 = test system: OVCAR-5
SF-295 = test system: SF-295
EKVX = test system: EKVX
OVCAR-3 = test system: OVCAR-3
RXF 393 = test system: RXF 393
HL-60 = test system: HL-60
DMS-273 = test system: DMS-273
SK-MEL-5 = test system: SK-MEL-5
SF-268 = test system: SF-268
U-251 = test system: U-251
KM-20L2 = test system: KM-20L2
786-0 = test system: 786-0
IGROV-1 = test system: IGROV-1
RXF 631 = test system: RXF 631
HT-29 = test system: HT-29
SNB-19 = test system: SNB-19
SR = test system: SR
KM12 = test system: KM12
HCT-116 = test system: HCT-116
MOLT-4 = test system: MOLT-4
HOP-62 = test system: HOP-62
UACC-62 = test system: UACC-62
LOX IMVI = test system: LOX IMVI
ACHN = test system: ACHN
OVCAR-4 = test system: OVCAR-4
SW-620 = test system: SW-620
SN12C = test system: SN12C
OVCAR-8 = test system: OVCAR-8
XF498 = test system: XF498
DMS-114 = test system: DMS-114
M19-MEL = test system: M19-MEL
RPMI-8226 = test system: RPMI-8226
COLO 205 = test system: COLO 205
CCRF-CEM = test system: CCRF-CEM
TK-10 = test system: TK-10
DLD-1 = test system: DLD-1
NCI-H23 = test system: NCI-H23
SNB-78 = test system: SNB-78
HOP-92 = test system: HOP-92

What does the source list for `CCOC(=O)C1=C(C)N(NC(=O)c2ccccc2)C2(O)CCCC12C(=O)OCC` (configuration not stated)?
GI50 (SF-539): > 100 µM (inactive); GI50 (CAKI-1): > 100 µM (inactive); GI50 (K562): > 100 µM (inactive); GI50 (A549): > 100 µM (inactive); GI50 (HCC 2998): > 100 µM (inactive); GI50 (Malme-3M): > 100 µM (inactive); GI50 (SK-OV-3): > 100 µM (inactive); GI50 (NCI-H522): > 100 µM (inactive); GI50 (SNB-75): 40.1 µM (inactive); GI50 (SK-MEL-28): > 100 µM (inactive); GI50 (UACC-257): > 100 µM (inactive); GI50 (SK-MEL-2): > 100 µM (inactive); GI50 (NCI-H226): > 100 µM (inactive); GI50 (UO-31): > 100 µM (inactive); GI50 (LXFL 529): > 100 µM (inactive); GI50 (M14): > 100 µM (inactive); GI50 (A498): > 100 µM (inactive); GI50 (HCT-15): > 100 µM; GI50 (NCI-H460): > 100 µM (inactive); GI50 (OVCAR-5): > 100 µM (inactive); GI50 (SF-295): > 100 µM (inactive); GI50 (EKVX): > 100 µM (inactive); GI50 (OVCAR-3): > 100 µM (inactive); GI50 (RXF 393): > 100 µM (inactive); GI50 (HL-60): > 100 µM (inactive); GI50 (DMS-273): > 100 µM (inactive); GI50 (SK-MEL-5): > 100 µM (inactive); GI50 (SF-268): > 100 µM (inactive); GI50 (U-251): > 100 µM (inactive); GI50 (KM-20L2): > 100 µM (inactive); GI50 (786-0): > 100 µM (inactive); GI50 (IGROV-1): > 100 µM (inactive); GI50 (RXF 631): > 100 µM (inactive); GI50 (HT-29): > 100 µM (inactive); GI50 (SNB-19): > 100 µM (inactive); GI50 (SR): 73.3 µM (inactive); GI50 (KM12): > 100 µM (inactive); GI50 (HCT-116): > 100 µM (inactive); GI50 (MOLT-4): > 100 µM (inactive); GI50 (HOP-62): > 100 µM (inactive); GI50 (UACC-62): > 100 µM (inactive); GI50 (LOX IMVI): > 100 µM (inactive); GI50 (ACHN): > 100 µM (inactive); GI50 (OVCAR-4): > 100 µM (inactive); GI50 (SW-620): > 100 µM (inactive); GI50 (SN12C): > 100 µM (inactive); GI50 (OVCAR-8): > 100 µM (inactive); GI50 (XF498): 55 µM (inactive); GI50 (DMS-114): > 100 µM (inactive); GI50 (M19-MEL): > 100 µM (inactive); GI50 (RPMI-8226): > 100 µM (inactive)

Which GI50 (SF-539) does the source give for `CS(=O)(=O)NNS(=O)(=O)c1cccc([N+](=O)[O-])c1` here?
The GI50 was > 100 µM (inactive).

And the GI50 (CAKI-1)?
Its GI50 is > 100 µM (inactive).

What about the GI50 (COLO 205) of the same compound?
Its GI50 is > 100 µM (inactive).

And the GI50 (K562)?
The GI50 was > 100 µM (inactive).

What about the GI50 (A549) of the same compound?
The GI50 was > 100 µM (inactive).

And the GI50 (HCC 2998)?
Its GI50 is > 100 µM (inactive).

What about the GI50 (Malme-3M) of the same compound?
The GI50 was > 100 µM (inactive).

And the GI50 (NCI-H522)?
The GI50 was > 100 µM (inactive).

What about the GI50 (CCRF-CEM) of the same compound?
The GI50 was > 100 µM (inactive).

And the GI50 (SNB-75)?
The GI50 was > 100 µM (inactive).

What about the GI50 (UACC-257) of the same compound?
The GI50 was > 100 µM (inactive).

And the GI50 (SK-MEL-2)?
Its GI50 is > 100 µM (inactive).

And the GI50 (NCI-H226)?
The GI50 was > 100 µM (inactive).

And the GI50 (UO-31)?
Its GI50 is > 100 µM (inactive).

What about the GI50 (LXFL 529) of the same compound?
The GI50 was > 100 µM (inactive).

What about the GI50 (M14) of the same compound?
Its GI50 is > 100 µM (inactive).

And the GI50 (A498)?
The GI50 was > 100 µM (inactive).

And the GI50 (HCT-15)?
The GI50 was greater than 100 µM.

And the GI50 (NCI-H460)?
Its GI50 is > 100 µM (inactive).

And the GI50 (SF-295)?
The GI50 was > 100 µM (inactive).

What about the GI50 (EKVX) of the same compound?
The GI50 was > 100 µM (inactive).

What about the GI50 (RXF 393) of the same compound?
The GI50 was > 100 µM (inactive).

What about the GI50 (HL-60) of the same compound?
Its GI50 is > 100 µM (inactive).

What about the GI50 (DMS-273) of the same compound?
The GI50 was > 100 µM (inactive).

What about the GI50 (TK-10) of the same compound?
The GI50 was > 100 µM (inactive).

And the GI50 (SK-MEL-5)?
The GI50 was > 100 µM (inactive).

And the GI50 (U-251)?
The GI50 was > 100 µM (inactive).

And the GI50 (KM-20L2)?
Its GI50 is > 100 µM (inactive).

What about the GI50 (786-0) of the same compound?
The GI50 was > 100 µM (inactive).

And the GI50 (IGROV-1)?
Its GI50 is > 100 µM (inactive).

And the GI50 (RXF 631)?
Its GI50 is > 100 µM (inactive).

And the GI50 (DLD-1)?
The GI50 was > 100 µM (inactive).

What about the GI50 (HT-29) of the same compound?
Its GI50 is > 100 µM (inactive).

And the GI50 (SNB-19)?
The GI50 was > 100 µM (inactive).

What about the GI50 (SR) of the same compound?
The GI50 was > 100 µM (inactive).

And the GI50 (KM12)?
The GI50 was > 100 µM (inactive).

And the GI50 (HCT-116)?
The GI50 was > 100 µM (inactive).

And the GI50 (MOLT-4)?
The GI50 was > 100 µM (inactive).

What about the GI50 (HOP-62) of the same compound?
Its GI50 is > 100 µM (inactive).

And the GI50 (NCI-H23)?
The GI50 was > 100 µM (inactive).

What about the GI50 (UACC-62) of the same compound?
Its GI50 is > 100 µM (inactive).

And the GI50 (LOX IMVI)?
Its GI50 is > 100 µM (inactive).

And the GI50 (ACHN)?
Its GI50 is > 100 µM (inactive).

And the GI50 (OVCAR-4)?
The GI50 was > 100 µM (inactive).

And the GI50 (SW-620)?
The GI50 was > 100 µM (inactive).

What about the GI50 (SN12C) of the same compound?
Its GI50 is > 100 µM (inactive).

And the GI50 (OVCAR-8)?
The GI50 was > 100 µM (inactive).

What about the GI50 (XF498) of the same compound?
The GI50 was > 100 µM (inactive).

And the GI50 (DMS-114)?
The GI50 was > 100 µM (inactive).

And the GI50 (M19-MEL)?
Its GI50 is > 100 µM (inactive).

And the GI50 (RPMI-8226)?
The GI50 was > 100 µM (inactive).

With `O=C(/C=C/c1ccc(O)cc1)OC[C@@H](O)COC1OC(CO)C(O)C(O)C1O` (some centres not stated) as the compound, how does the GI50 (K562) read?
Its GI50 is > 100 µM (inactive).

What about the GI50 (A549) of the same compound?
The GI50 was > 100 µM (inactive).

And the GI50 (SK-OV-3)?
The GI50 was > 100 µM (inactive).

What about the GI50 (NCI-H522) of the same compound?
The GI50 was > 100 µM (inactive).

What about the GI50 (CCRF-CEM) of the same compound?
Its GI50 is > 100 µM (inactive).

And the GI50 (SK-MEL-28)?
The GI50 was > 100 µM (inactive).

And the GI50 (UACC-257)?
The GI50 was > 100 µM (inactive).

And the GI50 (NCI-H226)?
Its GI50 is 94.2 µM (inactive).

And the GI50 (UO-31)?
Its GI50 is > 100 µM (inactive).

And the GI50 (M14)?
Its GI50 is > 100 µM (inactive).

And the GI50 (A498)?
Its GI50 is > 100 µM (inactive).

And the GI50 (NCI-H460)?
The GI50 was > 100 µM (inactive).

And the GI50 (OVCAR-5)?
The GI50 was > 100 µM (inactive).

And the GI50 (SNB-78)?
The GI50 was > 100 µM (inactive).

What about the GI50 (SF-295) of the same compound?
Its GI50 is > 100 µM (inactive).

What about the GI50 (EKVX) of the same compound?
Its GI50 is > 100 µM (inactive).

What about the GI50 (RXF 393) of the same compound?
Its GI50 is > 100 µM (inactive).

And the GI50 (HL-60)?
The GI50 was > 100 µM (inactive).

What about the GI50 (TK-10) of the same compound?
The GI50 was > 100 µM (inactive).

What about the GI50 (U-251) of the same compound?
The GI50 was > 100 µM (inactive).

And the GI50 (IGROV-1)?
The GI50 was > 100 µM (inactive).

And the GI50 (RXF 631)?
The GI50 was > 100 µM (inactive).

What about the GI50 (HT-29) of the same compound?
The GI50 was > 100 µM (inactive).

What about the GI50 (SNB-19) of the same compound?
The GI50 was > 100 µM (inactive).

What about the GI50 (SR) of the same compound?
Its GI50 is > 100 µM (inactive).

And the GI50 (KM12)?
Its GI50 is > 100 µM (inactive).

What about the GI50 (HCT-116) of the same compound?
Its GI50 is > 100 µM (inactive).

What about the GI50 (MOLT-4) of the same compound?
Its GI50 is > 100 µM (inactive).

What about the GI50 (HOP-62) of the same compound?
Its GI50 is > 100 µM (inactive).

What about the GI50 (NCI-H23) of the same compound?
Its GI50 is > 100 µM (inactive).

What about the GI50 (ACHN) of the same compound?
The GI50 was > 100 µM (inactive).

And the GI50 (OVCAR-8)?
Its GI50 is > 100 µM (inactive).

And the GI50 (HOP-92)?
Its GI50 is > 100 µM (inactive).

And the GI50 (DMS-114)?
Its GI50 is > 100 µM (inactive).

And the GI50 (M19-MEL)?
The GI50 was > 100 µM (inactive).
